Laboratory results reported in US12678438B2, “Treatment of cancer with CDK inhibitors” (THE TRUSTEES OF THE UNIVERSITY OF PENNSYLVANIA, priority 2019, dated 2026).
Each block holds one compound with its values, some of them ahead of it.

What was measured:
Assay type in all cases: cell-based, human
p-MED1 (p-T1457 MED1) = assay: Immunoblot of p-MED1 in AR-positive PCa cell lines (VCaP, LNCaP, 22RV1); conditions: LNCaP
Method: Cell lysates were prepared with RIPA buffer (Boston Bioproducts, BP-115DG)-10 mM Tris-HCl pH 7.5, 1 mM EDTA, 400 mM NaCl, 0.5% NP-40 and 1 mM DTT, supplemented with protease inhibitor cocktail (Pierce, A32965) and phosphatase inhibitor (Thermo, 1861280). For immunoblotting 200 μg total protein extract was boiled in sample buffer and 15-25 μg aliquots were separated by SDS-PAGE and transferred onto Polyvinylidene Difluoride membrane (GE Healthcare, IPVH00010). The membrane was incubated for one hour in blocking buffer [Tris-buffered saline, 0.1% Tween (TBS-T), 5% nonfat dry milk followed by overnight incubation on a rocker at 4° C. with the primary antibody. Following a wash with TBS-T, the blot was incubated with horseradish peroxidase-conjugated secondary antibody for 2 hrs on a rocker at room temperature. The blots were washed again and signals were visualized using enhanced chemiluminescence system as per manufacturer's protocol (GE Healthcare) or Kwik Quant Imager (Kindle Biosciences). Primary antibodies used in the immunoblotting (IB), immunoprecipitation (IP), and Chromatin Immunoprecipitation sequencing (ChIP-seq) assays are as follows: AR_IP, IB, ChIP-Seq (Millipore, 06-680); pS81-AR_IB (Millipore, 07-1375-EMD); RNA Pol II_IP, IB (Abcam, ab5408); ERG_IB (Abcam, a92513); PSA_IB (Dako, A0562); H3-acetyl K27_IP, IB, ChIP Seq (Abcam, ab32104) cPARP_IB (Cell Signaling Technology, 9541s); Cleaved caspase-3_IB (Cell Signaling Technology, 9664t); CDK7_IP, IB (Cell Signaling Technology, 2916s); CDK9_IP, IB (Cell Signaling Technology, 2316s); CDK12_IB (Cell Signaling Technology, 11973S); CDK13_IB (Sigma Cat. #ABE1860); Cyclin H_IB (Cell Signaling Technology, 2927T); HA_IP, IB (Cell Signaling Technology, 2367s); ERK1/2_IP, IB (Cell Signaling Technology, 9107s); phospho-ERK1/2_IB (Cell Signaling Technology, 9101s); phospho-Threonine_IB (Cell Signaling Technology, 9381s); PP2A alpha_IB (Abcam, ab32104); phospho-MED1_IB (Abcam, ab60950); Anti-GST_IB (Cell Signaling Technology, 2624); Anti-AKT_IB (Cell Signaling Technology, 9272); Anti-phosphoAKT_IB(Cell Signaling Technology, 4060); Anti-phospho-AR (Ser-515) _IB (Abeam, ab128250); Anti-RNA Pol 'LIB (Abeam, ab5408); Anti-phospho-pol II (Ser-5)_IB (Abeam, ab ab5095); Anti-phospho-CDK7 (Tlu-170) _IB (Millipore, ABS567); MED1_IP, IB, ChIP Seq (Bethyl, abA300-793A), Ki67_IHC (Cell Signaling Technology, 9661), and GAPDH (14C10), IB (Cell Signaling Technology, 3683s) for loading control.

[1] = test system: chromatin-bound p-MED1/MED1; assay: Chromatin-bound protein extraction and immunoblot; conditions: DHT-stimulated LNCaP, 6 h; THZ1 100 nM, enzalutamide 5 μM
Method: Chromatin bound protein extraction was performed following the protocol described in Pawar et al. Briefly, 10 million cells were collected and washed with DPBS, and were resuspended in 250 μl Buffer A (10 mM HEPES pH 7.9, 10 mM KCl, 1.5 mM MgCl2, 0.34 M sucrose, 10% glycerol, 1 mM DTT) supplemented with 0.1% TritonX-100 and incubated on ice for 10 min. The nuclei pellet was collected by centrifugation at 1300×g for 5 min at 4° C., washed in Buffer A and centrifuged again with the same settings. The nuclear pellet was then resuspended in Buffer B (3 mM EDTA, 0.2 mM EGTA, 1 mM DTT) and incubated on ice for 30 min. The chromatin pellet was collected by centrifugation at 1700×g for 5 min at 4° C., washed in Buffer B and centrifuged again with the same settings. The proteins were incubated on ice in Buffer B with 150 mM NaCl for 20 min and centrifuged at 1700×g for 5 min to remove proteins soluble in 150 mM salt concentrations. The pellet was then incubated in Buffer B with 300 mM NaCl on ice for 20 min and centrifuged again at 1700×g to obtain the final chromatin pellet. The chromatin pellet was dissolved in sample buffer, sonicated for 15 seconds, and boiled at 95° C. for 10 min. Samples were analyzed using Immunoblot analysis as described previously. All buffers were supplemented with Pierce protease inhibitor and Halt protease & phosphatase inhibitors.

[2] = test system: MED1 and AR recruitment to the chromatin; assay: ChIP-seq of genome-wide MED1 and AR binding; conditions: VCaP, 10 nM DHT plus 5 μM enzalutamide, 12 h
Method: ChIP was performed using iDeal ChIP-seq Kit for Transcription Factors (Diagenode, C01010170) according to manufacturer's protocol. In brief, the cells were crosslinked with 1% formaldehyde in culture medium for 10 min at room temperature. Cross-linking was terminated by the addition of 1/10 volume 1.25 M glycine for 5 min at room temperature followed by cell lysis and sonication (Bioruptor, Diagenode), resulting in an average chromatin fragment size of 200 bp. Chromatin equivalent to 5×10^6 cells was isolated and incubated with 10 μg antibody overnight at 4° C. (MED1, H3-acetyl K27, AR, and IgG (Diagenode). ChIP-seq libraries were prepared from the ChIP-enriched DNA samples using the TruSeq ChIP Library Preparation Kit (Illumina, IP-202-1012, IP-202-1024) and protocol. In brief, ChIP-enriched DNA (1-10 ng) was converted to blunt-ended fragments. A single A-base was added to fragment ends followed by ligation of Illumina adaptors. The adaptor-modified DNA fragments were enriched by PCR using the Illumina Barcode primers and Phusion DNA polymerase. PCR products were size selected using 3% NuSieve agarose gels (Lonza) followed by gel extraction using QIAEX II reagents (QIAGEN). Libraries were quantified with the Bioanalyzer 2100 (Agilent) and sequenced on the Illumina NextSeq 500 Sequencer (75 nucleotide read length).
Sequencing reads were quality checked with FASTQC (www.bioinformatics.babraham.ac.uk/projects/fastqc) and aligned to the GRCh37 (release 27) genome using the STAR v2.5.1 aligner with default settings. PCR duplicate reads in the aligned bam files were removed using samtools, bam files were converted to CPM normalized bigwig tracks using deeptools, and viewed using the Integrated Genomics Viewer or the UCSC genome browser. Single end reads were extended up to the fragment length (200 bp) along the read direction.
The enrichment peaks for the various transcription factors and histone marks were computed using MACS2, with default settings. Regions found to ubiquitously enriched across a number of next-generation sequencing experiments, also known as the blacklisted peaks (sites.google.com/site/anshulkundaje/projects/blacklists), were excluded in all subsequent analysis.

AR target genes = assay: qRT-PCR of DHT-induced AR target gene expression; conditions: LNCaP and VCaP, 10 μM enzalutamide
Method: For AR signaling stimulation experiments, cells were plated in complete media at required confluency. After 24 h cells were washed with DPBS and cultured in RPMI/DMEM without Phenol Red (Invitrogen, 11835030) and 10% charcoal-dextran stripped FBS (Gemini BioProducts, 100-119) for 72 h. Cells were then stimulated with 10 nM DHT for the specific time points.
Total RNA was isolated from cells using miRNeasy Mini Kit (Qiagen, 74106) and cDNA was synthesized from 1 μg total RNA using SuperScriptIV (Life Technologies, 18090200). qRT-PCR was performed using Fast SYBR Master Mix (Life Technologies, 4385617) or Taqman Fast Advance MMIX (Life Technologies, 4444964), and analyzed on QuantStudio3 (Applied Biosystems, USA). The target mRNA expression was quantified using ΔΔCt method, as normalized to GAPDH transcript levels. Primers were designed using Primer3 Input (version 0.4.0) (bioinfo.ut.ee/primer3-0.4.0/primer3) and synthesized by Integrated DNA Technologies.

Compound: COc1ccccc1-c1cc(Nc2cccc(CS(N)(=O)=O)c2)ncn1 [LDC]
p-MED1 levels (p-MED1 (p-T1457 MED1); VCaP, 22RV1, standard culture conditions, 24 h (THZ1 and LDC also with DHT stimulation)): no such effect on p-MED1 levels

Compound: CN(C)CCCC(=O)Nc1ccc(C(=O)Nc2cccc(Nc3ncc(Cl)c(-c4c[nH]c5ccccc45)n3)c2)cc1 [THZ1-R]
MED1 phosphorylation (p-MED1 (p-T1457 MED1); 100 nM, 12 h): does not affect MEDI phosphorylation

MED1 chromatin association (ChIP-seq) [2]: completely abolished | average ChIP-seq signal for AR [2]: significantly reversed
Compound: CNC(=O)c1ccc(N2C(=S)N(c3ccc(C#N)c(C(F)(F)F)c3)C(=O)C2(C)C)cc1F [enzalutamide]
chromatin-bound levels of p-MED1/MED1 [1]: unable to completely dissociate p-MED1 from the chromatin | DHT-induced AR target gene expression (AR target genes): AR target reversal
